How the values were obtained:
[1] = test system: metallothionein (MT) mRNA; assay: Bioavailability of different zinc compositions in chickens, MT mRNA in jejunum mucosal scrapings by QRT-PCR; assay type: in vivo, chicken; details: 70 ppm zinc in corn-soy diet for 2 days (day 21 to 23); six birds per treatment; 18S-normalized; P≦0.05
Protocol: Chickens were fed a low zinc pre-feed diet for 20 days. On day 21, they were switched to a corn-soy diet supplemented with one of the following: 1) unsupplemented for zinc (control); 2) 70 ppm zinc from ZnOxide; 3) 70 ppm zinc from a zinc amino acid complex (Zn AAC); 4) 70 ppm zinc from Zn(HMTBA)2. On day 23, six birds from each treatment were weighed, sacrificed, and jejunum samples were collected. The lumen was rinsed with 3-4 ml of cold saline, the jejunum was cut open lengthwise, and the mucosal surface was scraped with a glass slide. Cell scrapings were collected into 0.9 ml of RNAlater. RNA was isolated as described in Example 1. QRT-PCR was performed as described in Example 1, and 18S-normalized MT mRNA expression was determined.

[2] = test system: metallothionein (MT) mRNA; assay: Time course of zinc-induced expression of metallothionein in chicken jejunum, QRT-PCR; assay type: in vivo
Excerpt: A total of 54 chickens were fed a low zinc/low copper milo starter diet for 10 days. On day 11 (t=Day 0), the birds were split into two groups: 18 were fed a corn-soy diet supplemented with 25 ppm copper oxide and no zinc (“Cu”) and 36 were fed a corn-soy diet supplemented with 25 ppm copper oxide and 70 ppm zinc from Zn(HMTBA)2 (“Cu+Zn(HMTBA)2”). On days 13 (t=Day 2), 16 (t=Day 5) and 19 (t=Day 8), three “Cu” and three “Cu+Zn(HMTBA)2” birds per day were weighed and sacrificed. The mid-jejunum was collected from each bird. The lumen was rinsed with 3-4 ml of cold saline, and each sample was divided into two pieces, with each piece being no larger than 0.5 cm in any direction. The two pieces from each bird were placed in separate microcentrifuge tubes containing 0.9 ml of RNAlater solution.
RNA was isolated (RNA from the two pieces from each bird were pooled), and 18S-normalized MT mRNA expression levels were measured by QRT-PCR as described in Example 1. The data are expressed as MT mRNA expression relative to the low zinc jejunum reference sample from Example 1.

[3] = test system: metallothionein (MT) mRNA; assay: Induction of metallothionein (MT) mRNA by zinc in chicken tissues, QRT-PCR; assay type: in vivo; details: high zinc diet (34 ppm basal + 64 ppm zinc from Zn(HMTBA)2) vs low zinc diet (34 ppm); day 29; normalized to 18S rRNA; one bird per group
Excerpt: Zinc treatment and sample collection. Upon hatching, chicks were placed on a moderately Zn-deficient starter diet. On day 13, they were switched to two different test diets: some were fed a low zinc diet with no zinc supplements (the diet contained 34 ppm zinc in the basal feedstuffs) and the rest were fed a high zinc diet comprising 34 ppm zinc in the feedstuffs and 64 ppm zinc from Zn(HMTBA)2 for a total of 98 ppm zinc. On day 29, a chicken from each group was sacrificed and the following tissues were collected: jejunum (small intestine), jejunum mucosal scrapings, liver, and kidney. The lumen of a 2-3 inch long jejunum section was rinsed with 3-4 ml of cold saline. The jejunum was cut open lengthwise and placed mucosa-side up on a clean cutting board. One piece of jejunum, no greater than 0.5 cm in any direction, was placed into a microcentrifuge tube containing 0.9 ml of RNAlater solution, and stored according to the manufacturer's instructions (Ambion, Austin Tex.). The jejunum section's remaining mucosal surface was scraped with a glass slide. Cell scrapings were collected and placed into 0.9 ml RNAlater. The other tissues were stored in RNAlater. RNA was isolated using the High Pure RNATissue Prep Kit (Roche Applied Science, Cat No 12033674001) following the manufacturer's instructions. The concentration of RNA was determined using a spectrophotometer, and the concentration of RNA was adjusted to a maximum of 0.5 mg/ml by dilution with elution buffer. The RNA samples were either used immediately, or frozen on dry ice and stored at −80° C. until use.
Reverse Transcriptase and Quantitative PCR. First strand cDNA synthesis was performed using the Transcriptor Reverse Transcriptase® (Roche Applied Science, Indianapolis, Ind., catalog #04379012001), using the instructions supplied by the manufacturer. Each first-strand synthesis reaction contained 0.5 μg of total RNA. The reverse transcription was performed in a thermocycler using the following program: a brief, 90 sec denaturation step at 65° C.; annealing for 30 sec at 40° C.; 30 min cDNA synthesis at 55° C.; and enzyme inactivation by 5 min denaturation at 85° C. The reaction product was concentrated by ethanol precipitation, rinsed and dried. The sample was then resuspended in 400 μl of nuclease-free water and A260/A280 was measured to ensure that cDNA concentration in each sample would fall within the range of concentration usable by the QRT-PCR assay.
MT mRNA and 18S rRNA levels were measured by QRT-PCR on a Roche LightCycler®, using the LightCycler® FastStart DNA Master HybProbe Kit (Roche Molecular Systems, Inc, Alameda, Calif., catalog #300324) using 0.5 μM of each primer and 0.2 μM of each TaqMan probe, as shown in Table 1. […]

fold induction of MT mRNA in jejunum [3] [fold]	fold induction of MT mRNA in jejunum mucosal scrapings [3] [fold]	fold induction of MT mRNA in kidney [3] [fold]	fold induction of MT mRNA in liver [3] [fold]	SMILES	levels of MT mRNA induced in jejunum mucosal scrapings [1]	MT mRNA expression in jejunum, overall effect of treatment ([2]; 70 ppm zinc from Zn(HMTBA)2 + 25 ppm copper oxide vs 25 ppm copper oxide only, days 2, 5, 8, P=0.0077)	MT mRNA expression in jejunum, difference between treatments by day ([2]; Cu+Zn(HMTBA)2 vs Cu diet, three birds per treatment per day, days 2, 5 and 8)
–	–	–	–	[O-2].[Zn+2] [ZnOxide, zinc oxide, reference compound]	not significantly greater than MT expression in the unsupplemented birds	–	–
34	125	9	19	CSCCC(O)C(=O)[O-].CSCCC(O)C(=O)[O-].[Zn+2] (centres unmarked) [Zn(HMTBA)2]	significantly greater than those induced by ZnOxide or the Zn AAC	increased MT expression	Significant differences in MT expression are seen between treatments on days 5 and 8

From US20080090297A1, “Methods for determining the metal bioavailability of metal sources” (Novus International Inc., priority 2006, published 2008)
